Reference: US6391261B1, “Device for detecting analytes related to sample pH” (Lifepoint, Inc., priority 2000, dated 2002)

System: cocaine antibody
Assay: Cross-reactivity of the antibody used in the lateral flow competitive immunoassay for cocaine
Format: binding
Details: dye labeled cocaine antibody of the saliva test cassette
From the text: Each rapid oral fluid test cassette 70 included in this test kit consists of a lateral flow assay strip, a color intensity chart 78, a pH test section 82, and a pH chart 80. The lateral flow assay strip consists of color dye labeled cocaine antibody and a nitrocellulose membrane coated with cocaine-Bovine Serum […] (“BSA”) conjugate. When a saliva sample is applied to the sample section of the cassette, the saliva sample will migrate by capillary movement to the dye-antibody zone and the cocaine-BSA membrane zone. If the sample tested is negative, the dye-antibody will bind with the membrane cocaine-BSA conjugate to form a red band on the membrane.
If the sample tested contains cocaine, cocaine in the sample will bind with the dye-antibody, and thus the binding between the dye-antibody and the membrane cocaine-BSA is prevented. The unbound dye-antibody will migrate away from the membrane to an absorbent pad. As a result, the intensity of the color band appearing on the membrane is inversely proportional to the concentration of cocaine in the saliva sample. A semi-quantitative result of cocaine concentration in the saliva sample is achieved by comparing the color band with a color intensity chart.

| Compound | cross-reactivity of the assay antibody as compared with cocaine |
| --- | --- |
| CN1[C@H]2CC[C@@H]1[C@@H](C(=O)O)[C@@H](OC(=O)c1ccccc1)C2 [benzoylecgonine] | less than 5% |
| COc1ccc2c3c1O[C@H]1[C@@H](O)C=C[C@H]4[C@@H](C2)N(C)CC[C@@]341 [codeine] | No significant cross-reactivity |
| CCO [ethanol] | No significant cross-reactivity |
| CN[C@@H](C)Cc1ccccc1 [methamphetamine] | No significant cross-reactivity |
| CN1CC[C@]23c4c5ccc(O)c4O[C@H]2[C@@H](O)C=C[C@H]3[C@H]1C5 [morphine] | No significant cross-reactivity |
| c1ccc(C2(N3CCCCC3)CCCCC2)cc1 [phencyclidine] | No significant cross-reactivity |
| tetrahydrocannabinols | No significant cross-reactivity |
